Experiments:
HSV-1 strain F or KOS = assay: Inhibition of herpes simplex virus (HSV-1) replication in cell culture (BHK-21 cells, glycoprotein C ELISA); type: cell-based
Description: B) Inhibition of Herpes Simplex Virus (HSV-1) Replication in Cell Culture
BHK-21 cells clone 13 (ATCC CCL10) were incubated for two days in 850 cm^2 roller bottles (2×10^7 cells/bottle) with A-MEM medium (Gibco Canada Inc., Burlington, Ontario, Canada) supplemented with 8% (v/v) fetal bovine serum (FBS, Gibco Canada, Inc.). The cells were trypsinized and then 3,000 cells in 100 μL of fresh medium were transferred into each well of a 96-well microtiter plate. The cells were incubated at […] for a period of 3 days to reach a density of 50,000 cells per well. The cells were washed twice with 100 μL of α-MEM supplemented with 2% heat inactivated FBS and incubated for 1-2 hours in 100 μL of the same medium.
Thereafter, the cells were infected with HSV-1 strain F or KOS (multiplicity of infection =0.05 PFU/cell) in 50 μL of α-MEM supplemented with 2% heat inactivated FBS. Following one hour of virus absorption at 37°, the medium was removed and the cells were washed with α-MEM supplemented with 2% heat inactivated FBS (2×100 μL). The cells were incubated with or without 100 μL of the appropriate concentration of test reagent in α-MEM medium supplemented with 2% heat inactivated FBS. After 24 hours of incubation at 37°, the extent of viral replication was determined by an ELISA assay; for instance, the following assay that detects the late glycoprotein C of HSV-1.
Cells were fixed in the microtiter plate with 100 μL of 0.063% glutaraldehyde in phosphate buffered saline for 30 min at room temperature. The microtiter plate was then washed once with casein blocking solution and blocked with 200 μL of the same solution for one hour at room temperature. Thereafter, 100 μL of mAb C11 recognizing the glycoprotein C of HSV-1 (see E. Trybala et al., Journal of General Virology, 1994, 75, 743) was added to each well for two hours at room temperature. The plate was washed three times with phosphate buffered saline containing 0.05% polyoxyethylene (20) sorbitan monooleate. The cells were incubated with 100 μL of sheep anti-mouse IgG horseradish peroxidase for one hour at room temperature in the dark.
The plate was washed three times with 200 μL of the above-noted phosphate buffer saline preparation, and then once with 0.1 M sodium citrate (pH 4.5). Thereafter, 100 μL of orthophenylenediamine dihydrochloride (OPD, Gibco, Canada Inc.) was added to each well. The plate was agitated on a microplate shaker for 30 min in the dark. Color development was monitored at 450 nm using a microplate spectrophotometer.
SAS was used to calculate % inhibition of viral replication and to generate EC50 values.

HSV-1 helicase-primase = biological target: T1, HSV-1 helicase-primase (Human herpesvirus 1, UniProt P10189+P10236); assay: HSV-1 DNA-dependent ATPase assay (inhibition of HSV-1 helicase-primase); type: biochemical
T1 construct: made in house; host or cells: Sf21 insect cells triply infected with recombinant baculoviruses (UL5, UL8, UL52)
From the text: A) HSV-1 DNA-Dependent ATP Assay (an in Vitro Assay Based on the Inhibition of HSV-1 Helicase-primase).
HSV-1 helicase-primase holoenzyme was produced in triply infected Sf21 cells using recombinant baculoviruses expressing the UL5, UL8 and UL52 helicase-primase subunits, as described by S. Dracheva et al., J. Biol. Chem. 1995, 270, 14148. The crude enzyme was purified by ammonium sulfate precipitation, Source 15Q® chromatography and Sephacryl® S-300 HR gel filtration (both purification systems can be obtained from Pharmacia Biotech Inc., Montreal, Quebec, Canada), see S. Dracheva et al., supra.
The DNA-dependent ATPase assay, described by J. J. Crute et al., Nucleic Acids Res. 1988, 16, 6585, was modified and used to evaluate the capability of the compounds of Group 1-formula 1 to inhibit HSV-1 helicase-primase activity. The reaction mixtures (80 μL each) contained 40 mM 4-(2-hydroxyethyl)-1-piperazineethanesulfonic acid (HEPES, pH 7.5), 10% (v/v) glycerol, 5.5 mM MgCl2, 1 mM DL-dithiothreitol (DTT), 50 μg/mL acetylated bovine serum albumin, 3.3% (v/v) DMSO, 4 mM ATP, 25 μM single-stranded M13 DNA hybridized to double-tailed 68-mer oligonucleotide and 3 μg/mL HSV-1 helicase-primase. After incubation for 20 min at 34°, formation of inorganic phosphate from hydrolysis of ATP was monitored spectrophotometrically at 650 nm using acidic ammonium molybdate/malachite green reagent, P. A. Lanzetta et al., Anal. Biochem. 1979, 100, 95. DNA-dependent ATPase activity was calculated from the net absorbance change in the presence and absence of inhibition.

[1] = Human alphaherpesvirus 1, BHK-21, Group 1 Table 1 entries

T1 sequence (P10192 whole entry): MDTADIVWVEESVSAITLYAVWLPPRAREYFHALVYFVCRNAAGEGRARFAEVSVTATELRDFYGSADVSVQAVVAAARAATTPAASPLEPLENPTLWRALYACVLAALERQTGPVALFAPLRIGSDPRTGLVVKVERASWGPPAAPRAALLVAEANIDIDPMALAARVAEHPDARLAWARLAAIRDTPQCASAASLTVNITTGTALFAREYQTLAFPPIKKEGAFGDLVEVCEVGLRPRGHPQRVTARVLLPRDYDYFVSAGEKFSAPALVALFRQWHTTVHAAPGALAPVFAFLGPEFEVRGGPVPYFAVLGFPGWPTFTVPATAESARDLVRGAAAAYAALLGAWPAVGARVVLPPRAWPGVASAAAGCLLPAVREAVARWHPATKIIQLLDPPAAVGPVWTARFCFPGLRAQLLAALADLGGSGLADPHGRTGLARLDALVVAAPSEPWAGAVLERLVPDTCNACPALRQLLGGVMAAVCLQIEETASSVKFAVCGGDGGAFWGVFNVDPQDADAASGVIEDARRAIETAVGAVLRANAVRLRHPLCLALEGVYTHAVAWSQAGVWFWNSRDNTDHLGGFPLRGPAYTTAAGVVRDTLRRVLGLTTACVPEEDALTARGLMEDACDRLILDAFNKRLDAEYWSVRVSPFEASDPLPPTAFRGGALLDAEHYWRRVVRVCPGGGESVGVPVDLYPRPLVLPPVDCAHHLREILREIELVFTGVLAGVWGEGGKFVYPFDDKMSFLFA
T1 sequence (P10236 whole entry): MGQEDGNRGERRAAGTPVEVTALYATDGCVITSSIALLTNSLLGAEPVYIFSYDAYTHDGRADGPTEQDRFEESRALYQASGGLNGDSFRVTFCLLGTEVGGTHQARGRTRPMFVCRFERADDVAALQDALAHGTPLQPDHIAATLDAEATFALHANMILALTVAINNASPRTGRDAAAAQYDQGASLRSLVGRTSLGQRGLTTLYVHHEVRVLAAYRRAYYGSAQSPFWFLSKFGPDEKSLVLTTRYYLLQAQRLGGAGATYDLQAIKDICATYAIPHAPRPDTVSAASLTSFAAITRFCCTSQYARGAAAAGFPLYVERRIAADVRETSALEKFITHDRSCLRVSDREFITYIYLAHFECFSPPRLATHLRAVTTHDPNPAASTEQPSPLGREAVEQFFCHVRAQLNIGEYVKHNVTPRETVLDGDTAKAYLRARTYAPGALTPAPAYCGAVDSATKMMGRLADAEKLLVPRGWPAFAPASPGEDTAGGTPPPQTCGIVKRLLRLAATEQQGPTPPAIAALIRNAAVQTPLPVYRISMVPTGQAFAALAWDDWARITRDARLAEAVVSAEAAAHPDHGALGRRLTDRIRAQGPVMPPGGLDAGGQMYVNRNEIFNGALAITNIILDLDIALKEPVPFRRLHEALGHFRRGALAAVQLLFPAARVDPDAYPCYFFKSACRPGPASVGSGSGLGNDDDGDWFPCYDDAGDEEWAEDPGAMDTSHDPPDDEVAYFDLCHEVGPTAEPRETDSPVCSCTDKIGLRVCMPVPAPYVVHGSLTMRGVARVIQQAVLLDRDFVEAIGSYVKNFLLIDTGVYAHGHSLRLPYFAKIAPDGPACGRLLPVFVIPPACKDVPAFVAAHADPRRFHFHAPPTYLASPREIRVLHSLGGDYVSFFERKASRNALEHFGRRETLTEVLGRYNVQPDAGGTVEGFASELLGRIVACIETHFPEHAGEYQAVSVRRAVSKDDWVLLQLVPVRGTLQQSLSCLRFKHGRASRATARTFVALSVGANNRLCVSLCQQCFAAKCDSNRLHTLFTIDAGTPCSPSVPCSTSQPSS
T1 sequence (P10189 whole entry): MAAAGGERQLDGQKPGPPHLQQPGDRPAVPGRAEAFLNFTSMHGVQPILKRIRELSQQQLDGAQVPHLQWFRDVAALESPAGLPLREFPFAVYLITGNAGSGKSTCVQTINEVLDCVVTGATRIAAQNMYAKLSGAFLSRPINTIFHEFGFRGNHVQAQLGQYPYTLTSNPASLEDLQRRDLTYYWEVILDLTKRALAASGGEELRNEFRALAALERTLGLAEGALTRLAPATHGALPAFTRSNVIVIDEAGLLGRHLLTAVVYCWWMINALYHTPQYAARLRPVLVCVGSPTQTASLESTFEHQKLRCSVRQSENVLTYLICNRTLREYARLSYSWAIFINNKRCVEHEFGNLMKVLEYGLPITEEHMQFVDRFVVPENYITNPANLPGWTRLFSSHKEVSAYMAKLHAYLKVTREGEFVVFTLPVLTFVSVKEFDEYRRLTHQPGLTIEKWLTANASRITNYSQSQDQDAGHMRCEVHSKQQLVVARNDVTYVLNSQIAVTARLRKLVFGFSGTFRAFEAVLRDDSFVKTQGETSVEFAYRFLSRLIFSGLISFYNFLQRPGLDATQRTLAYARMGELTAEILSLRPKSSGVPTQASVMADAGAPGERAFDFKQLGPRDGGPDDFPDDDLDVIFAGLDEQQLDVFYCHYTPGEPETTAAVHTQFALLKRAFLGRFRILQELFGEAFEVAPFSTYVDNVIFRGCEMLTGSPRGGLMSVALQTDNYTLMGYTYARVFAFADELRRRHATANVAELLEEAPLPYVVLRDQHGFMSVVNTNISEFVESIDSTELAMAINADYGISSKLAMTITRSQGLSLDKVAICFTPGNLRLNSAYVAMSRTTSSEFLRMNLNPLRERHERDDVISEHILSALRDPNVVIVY

SMILES	EC50 (HSV-1 strain F or KOS; [1]) [nM]	IC50 (HSV-1 helicase-primase; Group 1 Table 1 entries) [nM]	also measured
Nc1nc(-c2ccc(NC(=O)CN(Cc3cccc(F)c3)C(=O)c3ccncc3)cc2)cs1 [Example 147]	22	350	
[N-]=[N+]=Nc1ccc(C(=O)N(CC(=O)Nc2ccc(-c3csc(N)n3)cc2)Cc2ccncc2)cc1 [Example 78]	180		
Cc1cc(C(=O)N(CC(=O)Nc2ccc(-c3csc(N)n3)cc2)Cc2ccccc2)cc(C)n1 [Example 168]	450	2900	
COc1ccccc1CN(CC(=O)Nc1ccc(-c2csc(N)n2)cc1)C(=O)c1ccncc1 [Example 148]	25	380	
Cc1cnccc1C(=O)N(CC(=O)Nc1ccc(-c2csc(N)n2)cc1)Cc1ccccc1 [Example 167]	31	140	
Nc1nc(-c2ccc(NC(=O)CN(Cc3ccccc3)C(=O)c3cscn3)cc2)cs1 [Example 170]	1500	700	
Cc1ccc(CNCC(=O)Nc2ccc(-c3csc(N)n3)cc2)cc1 [Example 6]	18000	19000	
Nc1nc(-c2ccc(NC(=O)CNCc3ccc(Cl)cc3)cc2)cs1 [Example 5]	42000	5400	
Cc1ccc(C)c(CN(CC(=O)Nc2ccc(-c3csc(N)n3)cc2)C(=O)c2ccncc2)c1 [Example 155]	11	200	
Nc1nc(-c2ccc(NC(=O)[C@H](Cc3ccccc3)NC(=O)OCc3ccccc3)cc2)cs1 [Example 23]			EC50 (HSV-1 strain F or KOS; Human alphaherpesvirus 1, BHK-21, Group 1 Table 5 entries): 94 nM; IC50 (HSV-1 helicase-primase; Group 1 Table 5 entries): 600 nM
Cc1ccccc1CN(CC(=O)Nc1ccc(-c2csc(N)n2)cc1)C(=O)c1ccncc1 [Example 102]	11		
COc1cccc(CN(CC(=O)Nc2ccc(-c3csc(N)n3)cc2)C(=O)c2ccncc2)c1 [Example 149]	55	450	
Nc1nc(-c2ccc(NC(=O)CN(CCc3cscn3)C(=O)c3ccncc3)cc2)cs1 [Example 164]	61	3000	
COc1ccc(CN(CC(=O)Nc2ccc(-c3csc(N)n3)cc2)C(=O)c2ccncc2)cc1 [Example 150]	120	2000	
Cc1cccc(C)c1CN(CC(=O)Nc1ccc(-c2csc(N)n2)cc1)C(=O)c1ccncc1 [Example 156]	420	3500	
Cc1nc(CCN(CC(=O)Nc2ccc(-c3csc(N)n3)cc2)C(=O)c2ccncc2)cs1 [Example 165]	1100	4600	
Nc1nc(-c2ccc(NC(=O)CN(Cc3cccc(F)c3)Cc3cccc(F)c3)cc2)cs1 [Example 18]	100	400	
Nc1nc(-c2ccc(NC(=O)CN(Cc3cccc(Cl)c3)C(=O)c3ccncc3)cc2)cs1 [Example 146]	5	150	
Nc1nc(-c2ccc(NC(=O)CN(Cc3ccc(Cl)c(I)c3)C(=O)c3ccncc3)cc2)cs1 [Example 70]	160	570	
Nc1nc(-c2ccc(NC(=O)CN(Cc3ccccc3)C(=O)c3ccncn3)cc2)cs1 [Example 169]	150	1400	
CNc1nc(-c2ccc(NC(=O)CNCc3ccccc3)cc2)cs1 [Example 7]			EC50 (HSV-1 strain F or KOS; Human alphaherpesvirus 1, BHK-21, Group 1 Table 3 entries): 4100 nM
[N-]=[N+]=Nc1ccc(C(=O)N(CC(=O)Nc2ccc(-c3csc(N)n3)cc2)Cc2ccccc2)cc1 [Example 74]	120	280	
Nc1nc(-c2ccc(NC(=O)CN(CCc3ccccn3)C(=O)c3ccncc3)cc2)cs1 [Example 158]	440	1800	
Nc1nc(-c2ccc(NC(=O)CN(Cc3ccccc3Cl)C(=O)c3ccncc3)cc2)cs1 [Example 145]	19	390	
[N-]=[N+]=Nc1ccc(C(=O)N(CC(=O)Nc2ccc(-c3csc(N)n3)cc2)Cc2ccc(Cl)cc2)cc1 [Example 65]		840	
Nc1nc(-c2ccc(NC(=O)CNCc3cccc(F)c3)cc2)cs1 [Example 9]		~5000	
Nc1nc(-c2ccc(NC(=O)CN(Cc3ccc(Cl)cc3)C(=O)c3ccncc3)cc2)cs1 [Example 55]	95		

Continued, in another order:

EC50 (HSV-1 strain F or KOS; [1]) [nM]	IC50 (HSV-1 helicase-primase; Group 1 Table 1 entries) [nM]	SMILES	also measured
950		Nc1nc(-c2ccc(NC(=O)CN(CC3CCCCC3)C(=O)c3ccncc3)cc2)cs1 [Example 57]	
6		Nc1nc(-c2ccc(NC(=O)CN(Cc3ccc(F)cc3)C(=O)C3CCCCC3)cc2)cs1 [Example 83]	
120		Nc1nc(-c2ccc(NC(=O)CN(Cc3ccccc3)S(=O)(=O)N3CCOCC3)cc2)cs1 [Example 96]	
10	40	Cc1cc(C)cc(CN(CC(=O)Nc2ccc(-c3csc(N)n3)cc2)C(=O)c2ccncc2)c1 [Example 157]	
37		Nc1nc(-c2ccc(NC(=O)CN(Cc3ccccc3)C(=O)N3CCOCC3)cc2)cs1 [Example 95]	
50	950	Cc1nc(C)c(C(=O)N(CC(=O)Nc2ccc(-c3csc(N)n3)cc2)Cc2ccccc2)s1 [Example 173]	
50		Nc1nc(-c2ccc(NC(=O)CN(CCc3ccccc3)C(=O)C3CCCCC3)cc2)cs1 [Example 68]	
88		CC(C)COC(=O)N(CC(=O)Nc1ccc(-c2csc(N)n2)cc1)Cc1ccccc1 [Example 86]	
1600		CC(C)(C)OC(=O)N1CCC(C(=O)N(CC(=O)Nc2ccc(-c3csc(N)n3)cc2)CC2CCCCC2)CC1 [Example 61]	
290		C[C@@H](c1ccccc1)N(CC(=O)Nc1ccc(-c2csc(N)n2)cc1)C(=O)NC(C)(C)C [Example 105]	
65		CN(C(=O)N(CC(=O)Nc1ccc(-c2csc(N)n2)cc1)Cc1ccccc1)C(C)(C)C [Example 94]	
240		Nc1nc(-c2ccc(NC(=O)CN(CC3CCCCC3)C(=O)CC3CCCC3)cc2)cs1 [Example 75]	
180		Nc1nc(-c2ccc(NC(=O)CN(Cc3ccc(Cl)cc3)C(=O)CC3CCCCC3)cc2)cs1 [Example 69]	
850		CC(C)(C)OC(=O)N(CC(=O)Nc1ccc(-c2csc(N)n2)cc1)CC1CCCCC1 [Example 100]	
180		CC(C)CN(CC(=O)Nc1ccc(-c2csc(N)n2)cc1)C(=O)C1CCCCC1 [Example 81]	
34		CC(C)(C)NC(=O)N(CC(=O)Nc1ccc(-c2csc(N)n2)cc1)Cc1ccccc1 [Example 92]	
